A value given as a limit tells only on which side of the number the result lay.

Experiment [1] deals with MCF-7. As to the kind of experiment: Cytotoxicity in cell lines. Type of experiment: cell-based. The note with it: Homo sapiens, MCF7; Table 4. How it is done: (§1) The cytotoxicity of exemplary compounds of the application was tested in multiple cell lines including MV-4-11, MOLM-13, MCF-7, MRC9, K562 and MM.1S. The therapeutic index was evaluated by determining the toxicity of the exemplary compounds in healthy cell lines including fibroblasts and HUVEC.

The subject of experiment [2] is MV-4-11. Briefly: Cytotoxicity in cell lines. Type of experiment: cell-based. As to conditions: Homo sapiens, MV4-11, Table 4; read-out: IC50 MV-411. How it is done:
as §1

Experiment [3] deals with MOLM-13. Briefly: Cytotoxicity in cell lines. The experiment is classed as cell-based. The note with it: Homo sapiens, MOLM-13; Table 4; read-out: IC50 MOLM-13. As to the method: as §1
The target in experiment [4] is HDAC9 (Homo sapiens, UniProt Q9UKV0). As to the kind of experiment: in vitro activity-based HDAC assay. Type of experiment: biochemical. The note with it: human HDAC isoform panel, Table 1. As to the method:
(§2) The exemplary compounds of Formula I and structurally related compounds were synthesized to assess their structure-activity relationship. […] The IC50 values for each exemplary compound were used to calculate the selectivity of the exemplary compounds for Formula I to HDAC6. The selectivity of each exemplary compound for HDAC6 was determined from examining the potency of HDAC6 in relation to the highest binding affinity of the other HDAC isoforms tested.

In experiment [5] the target is HDAC2 (Homo sapiens, UniProt Q92769). Briefly: in vitro activity-based HDAC assay. The note with it: human HDAC isoform panel, Table 1. The experiment is classed as biochemical. As to the method:
as §2

Experiment [6] addresses HDAC4 (Homo sapiens, UniProt P56524). Briefly: in vitro activity-based HDAC assay. Type of experiment: biochemical. The note with it: human HDAC isoform panel, Table 1. How it is done: as §2
Experiment [7] has as its target T1, HDAC10 (Homo sapiens, UniProt Q969S8).
T1 sequence (Q969S8 1-669): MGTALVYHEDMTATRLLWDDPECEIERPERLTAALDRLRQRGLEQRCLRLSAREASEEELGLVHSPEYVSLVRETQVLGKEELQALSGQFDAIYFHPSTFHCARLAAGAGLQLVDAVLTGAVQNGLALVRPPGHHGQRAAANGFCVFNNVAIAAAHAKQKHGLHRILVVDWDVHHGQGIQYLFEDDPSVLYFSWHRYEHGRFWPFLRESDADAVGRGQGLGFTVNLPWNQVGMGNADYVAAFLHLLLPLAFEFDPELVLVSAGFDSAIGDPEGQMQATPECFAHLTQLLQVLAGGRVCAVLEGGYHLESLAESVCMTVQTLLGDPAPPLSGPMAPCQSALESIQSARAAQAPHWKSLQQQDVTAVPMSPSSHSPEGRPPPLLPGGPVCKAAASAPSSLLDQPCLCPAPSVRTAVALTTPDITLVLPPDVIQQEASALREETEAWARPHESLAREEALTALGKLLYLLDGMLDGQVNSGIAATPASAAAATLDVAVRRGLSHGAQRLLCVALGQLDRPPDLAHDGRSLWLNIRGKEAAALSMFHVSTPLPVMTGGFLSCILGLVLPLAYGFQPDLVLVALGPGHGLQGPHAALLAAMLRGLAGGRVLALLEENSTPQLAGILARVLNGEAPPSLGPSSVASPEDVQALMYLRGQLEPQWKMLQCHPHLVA
Briefly: in vitro activity-based HDAC assay. As to conditions: human HDAC isoform panel, Table 1. Type of experiment: biochemical. How it is done: as §2

Experiment [8] deals with T2, HDAC7 (Homo sapiens, UniProt Q8WUI4).
T2 sequence (Q8WUI4 1-952): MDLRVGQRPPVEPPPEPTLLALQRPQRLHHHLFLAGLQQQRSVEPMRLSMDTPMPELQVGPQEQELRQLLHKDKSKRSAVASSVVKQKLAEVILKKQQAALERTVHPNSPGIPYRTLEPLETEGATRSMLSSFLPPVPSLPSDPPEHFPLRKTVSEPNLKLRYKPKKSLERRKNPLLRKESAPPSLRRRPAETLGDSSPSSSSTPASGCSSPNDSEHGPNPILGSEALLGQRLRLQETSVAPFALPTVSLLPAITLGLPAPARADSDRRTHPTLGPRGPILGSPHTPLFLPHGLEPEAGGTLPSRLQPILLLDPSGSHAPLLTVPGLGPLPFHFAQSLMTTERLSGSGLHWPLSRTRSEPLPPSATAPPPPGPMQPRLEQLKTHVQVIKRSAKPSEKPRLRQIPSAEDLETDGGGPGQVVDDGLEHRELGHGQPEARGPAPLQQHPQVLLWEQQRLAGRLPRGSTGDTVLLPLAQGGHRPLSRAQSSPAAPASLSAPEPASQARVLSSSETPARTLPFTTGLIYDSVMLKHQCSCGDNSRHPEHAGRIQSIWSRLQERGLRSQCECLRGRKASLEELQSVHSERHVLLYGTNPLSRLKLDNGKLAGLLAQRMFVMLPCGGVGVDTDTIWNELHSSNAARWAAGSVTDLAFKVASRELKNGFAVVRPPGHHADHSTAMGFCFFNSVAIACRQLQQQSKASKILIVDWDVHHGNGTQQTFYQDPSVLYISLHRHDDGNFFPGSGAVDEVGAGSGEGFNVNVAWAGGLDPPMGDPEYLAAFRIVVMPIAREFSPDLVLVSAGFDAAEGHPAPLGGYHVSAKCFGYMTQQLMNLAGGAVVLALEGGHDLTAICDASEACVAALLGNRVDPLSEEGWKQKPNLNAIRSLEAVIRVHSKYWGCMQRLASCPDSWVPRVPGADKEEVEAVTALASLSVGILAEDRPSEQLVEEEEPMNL
Briefly: in vitro activity-based HDAC assay. The experiment is classed as biochemical. The note with it: human HDAC isoform panel, Table 1. As to the method:
as §2

The target of experiment [9] is HDAC1 (Homo sapiens, UniProt Q13547). Briefly: in vitro activity-based HDAC assay. The experiment is classed as biochemical. The note with it: human HDAC isoform panel, Table 1. As to the method:
as §2

Experiment [10] has as its target HDAC5 (Homo sapiens, UniProt Q9UQL6). Briefly: in vitro activity-based HDAC assay. The experiment is classed as biochemical. The note with it: human HDAC isoform panel, Table 1. As to the method: as §2
In experiment [11] the test system is MRC9. As to the kind of experiment: Cytotoxicity in cell lines. Type of experiment: cell-based. As to conditions: Table 4. As to the method:
as §1

The test system of experiment [12] is MM.1S. Briefly: Cytotoxicity in cell lines. Type of experiment: cell-based. As to conditions: Homo sapiens, MM1.S; Table 4. How it is done:
as §1

Sequence of HDAC1 (Q13547 whole entry, canonical isoform): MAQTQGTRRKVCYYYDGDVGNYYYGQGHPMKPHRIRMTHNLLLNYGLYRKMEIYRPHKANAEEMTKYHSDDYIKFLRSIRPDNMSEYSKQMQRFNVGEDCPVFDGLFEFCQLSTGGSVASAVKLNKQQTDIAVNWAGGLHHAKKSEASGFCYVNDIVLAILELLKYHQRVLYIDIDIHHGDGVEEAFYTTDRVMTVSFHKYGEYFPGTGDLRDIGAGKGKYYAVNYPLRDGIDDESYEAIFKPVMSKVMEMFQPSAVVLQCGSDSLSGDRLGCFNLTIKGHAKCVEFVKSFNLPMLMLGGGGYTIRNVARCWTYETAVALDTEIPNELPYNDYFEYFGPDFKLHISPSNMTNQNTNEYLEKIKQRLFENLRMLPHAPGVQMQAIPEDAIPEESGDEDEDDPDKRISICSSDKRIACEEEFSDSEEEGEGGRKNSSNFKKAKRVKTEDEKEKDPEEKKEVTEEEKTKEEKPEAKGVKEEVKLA
Sequence of HDAC9 (Q9UKV0 whole entry, canonical isoform): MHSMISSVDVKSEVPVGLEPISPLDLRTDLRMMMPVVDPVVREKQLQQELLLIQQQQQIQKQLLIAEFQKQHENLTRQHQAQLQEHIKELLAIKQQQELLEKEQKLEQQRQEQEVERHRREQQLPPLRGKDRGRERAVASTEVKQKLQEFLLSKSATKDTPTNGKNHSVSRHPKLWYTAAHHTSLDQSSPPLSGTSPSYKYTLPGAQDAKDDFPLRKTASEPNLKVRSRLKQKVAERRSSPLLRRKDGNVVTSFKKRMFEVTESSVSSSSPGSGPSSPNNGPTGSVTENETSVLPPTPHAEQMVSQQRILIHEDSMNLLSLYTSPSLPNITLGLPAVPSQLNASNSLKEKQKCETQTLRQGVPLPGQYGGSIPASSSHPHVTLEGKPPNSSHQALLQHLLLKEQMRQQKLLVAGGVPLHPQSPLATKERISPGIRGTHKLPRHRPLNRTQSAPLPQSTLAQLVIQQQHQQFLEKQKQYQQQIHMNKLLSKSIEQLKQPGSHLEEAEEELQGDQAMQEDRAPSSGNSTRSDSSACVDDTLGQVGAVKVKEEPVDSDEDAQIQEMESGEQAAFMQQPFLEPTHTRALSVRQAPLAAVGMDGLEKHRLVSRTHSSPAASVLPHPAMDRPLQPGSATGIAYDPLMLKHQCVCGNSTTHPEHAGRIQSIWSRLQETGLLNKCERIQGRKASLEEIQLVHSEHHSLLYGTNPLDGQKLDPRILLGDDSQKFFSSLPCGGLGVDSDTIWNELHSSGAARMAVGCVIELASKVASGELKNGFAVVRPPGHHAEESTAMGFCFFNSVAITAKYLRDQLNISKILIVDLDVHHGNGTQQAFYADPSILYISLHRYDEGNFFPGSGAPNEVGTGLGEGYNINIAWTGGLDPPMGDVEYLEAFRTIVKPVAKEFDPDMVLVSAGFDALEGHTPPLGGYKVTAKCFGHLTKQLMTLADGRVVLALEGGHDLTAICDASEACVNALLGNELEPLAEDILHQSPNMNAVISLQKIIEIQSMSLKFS
Sequence of HDAC2 (Q92769 whole entry, canonical isoform): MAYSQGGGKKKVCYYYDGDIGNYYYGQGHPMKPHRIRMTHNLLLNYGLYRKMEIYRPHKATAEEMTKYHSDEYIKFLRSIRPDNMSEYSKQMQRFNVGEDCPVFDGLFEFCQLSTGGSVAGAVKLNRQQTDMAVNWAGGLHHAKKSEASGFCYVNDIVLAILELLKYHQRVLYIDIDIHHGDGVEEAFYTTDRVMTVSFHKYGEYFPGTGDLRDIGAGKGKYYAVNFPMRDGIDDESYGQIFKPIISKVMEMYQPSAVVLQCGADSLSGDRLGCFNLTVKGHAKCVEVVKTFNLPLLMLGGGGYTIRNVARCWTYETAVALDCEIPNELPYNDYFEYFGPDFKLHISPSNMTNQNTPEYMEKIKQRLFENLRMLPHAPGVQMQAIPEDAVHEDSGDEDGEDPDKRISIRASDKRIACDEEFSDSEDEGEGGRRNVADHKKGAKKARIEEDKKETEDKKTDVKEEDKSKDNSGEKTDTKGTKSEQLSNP
Sequence of HDAC5 (Q9UQL6 whole entry, canonical isoform): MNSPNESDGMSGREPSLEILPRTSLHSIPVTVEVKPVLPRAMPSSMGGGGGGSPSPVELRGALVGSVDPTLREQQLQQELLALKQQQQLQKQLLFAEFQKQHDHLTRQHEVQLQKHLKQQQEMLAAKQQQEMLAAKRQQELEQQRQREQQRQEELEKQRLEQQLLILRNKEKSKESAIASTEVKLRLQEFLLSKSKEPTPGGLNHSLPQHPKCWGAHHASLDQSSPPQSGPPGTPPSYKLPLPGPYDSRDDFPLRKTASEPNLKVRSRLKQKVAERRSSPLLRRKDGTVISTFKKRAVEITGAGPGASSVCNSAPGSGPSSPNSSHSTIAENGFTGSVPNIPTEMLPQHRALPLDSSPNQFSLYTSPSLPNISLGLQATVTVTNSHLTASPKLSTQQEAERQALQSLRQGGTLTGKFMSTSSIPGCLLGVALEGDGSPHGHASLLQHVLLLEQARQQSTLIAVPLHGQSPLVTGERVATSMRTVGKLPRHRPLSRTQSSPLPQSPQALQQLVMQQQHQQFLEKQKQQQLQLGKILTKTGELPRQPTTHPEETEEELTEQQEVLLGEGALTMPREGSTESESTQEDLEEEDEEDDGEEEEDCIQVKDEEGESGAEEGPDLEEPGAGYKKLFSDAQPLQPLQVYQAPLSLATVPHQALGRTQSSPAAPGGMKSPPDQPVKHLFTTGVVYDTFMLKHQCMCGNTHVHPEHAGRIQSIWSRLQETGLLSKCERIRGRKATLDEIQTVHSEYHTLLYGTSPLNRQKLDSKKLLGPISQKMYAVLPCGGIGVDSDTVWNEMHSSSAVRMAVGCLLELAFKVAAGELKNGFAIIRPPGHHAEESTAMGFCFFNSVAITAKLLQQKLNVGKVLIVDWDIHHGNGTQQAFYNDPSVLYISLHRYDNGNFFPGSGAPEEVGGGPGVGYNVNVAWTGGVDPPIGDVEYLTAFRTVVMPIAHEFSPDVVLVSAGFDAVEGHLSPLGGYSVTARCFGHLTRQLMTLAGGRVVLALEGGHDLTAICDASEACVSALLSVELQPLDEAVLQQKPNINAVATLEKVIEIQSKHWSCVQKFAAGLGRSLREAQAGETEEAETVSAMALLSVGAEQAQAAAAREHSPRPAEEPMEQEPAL
Sequence of HDAC4 (P56524 whole entry, canonical isoform): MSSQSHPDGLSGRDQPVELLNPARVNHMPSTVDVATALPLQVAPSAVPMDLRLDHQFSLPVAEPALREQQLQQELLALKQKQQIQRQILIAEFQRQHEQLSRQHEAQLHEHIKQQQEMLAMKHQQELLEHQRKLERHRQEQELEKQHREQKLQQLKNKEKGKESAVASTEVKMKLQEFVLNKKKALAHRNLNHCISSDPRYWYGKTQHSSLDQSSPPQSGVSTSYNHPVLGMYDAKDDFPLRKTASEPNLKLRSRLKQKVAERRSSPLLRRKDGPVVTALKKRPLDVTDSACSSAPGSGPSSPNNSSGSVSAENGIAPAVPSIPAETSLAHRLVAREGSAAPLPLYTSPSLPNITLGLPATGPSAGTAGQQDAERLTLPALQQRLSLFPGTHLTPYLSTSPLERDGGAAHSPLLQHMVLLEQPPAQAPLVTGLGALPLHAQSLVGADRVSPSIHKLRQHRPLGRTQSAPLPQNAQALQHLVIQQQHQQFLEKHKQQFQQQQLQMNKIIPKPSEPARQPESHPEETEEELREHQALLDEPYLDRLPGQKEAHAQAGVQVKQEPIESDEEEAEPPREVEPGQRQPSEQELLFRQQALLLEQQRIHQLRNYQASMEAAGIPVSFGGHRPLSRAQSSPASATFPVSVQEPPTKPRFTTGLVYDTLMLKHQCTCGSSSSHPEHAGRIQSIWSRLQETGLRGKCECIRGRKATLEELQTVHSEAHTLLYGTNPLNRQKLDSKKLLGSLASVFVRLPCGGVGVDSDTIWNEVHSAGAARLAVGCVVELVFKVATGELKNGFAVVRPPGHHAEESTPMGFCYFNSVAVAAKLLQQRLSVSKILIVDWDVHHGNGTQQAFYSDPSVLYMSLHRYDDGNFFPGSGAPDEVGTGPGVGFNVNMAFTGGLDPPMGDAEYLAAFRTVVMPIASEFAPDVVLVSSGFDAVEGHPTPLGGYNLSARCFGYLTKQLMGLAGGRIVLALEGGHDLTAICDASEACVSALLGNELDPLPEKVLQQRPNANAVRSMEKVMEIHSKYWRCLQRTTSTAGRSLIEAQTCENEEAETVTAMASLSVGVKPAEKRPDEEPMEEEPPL

`O=C(NO)c1ccc(CN(Cc2cccnc2)S(=O)(=O)c2cc(F)c(F)c(F)c2F)c(C(F)(F)F)c1` [Compound I-31, N-hydroxy-4-((2,3,4,5-tetrafluoro-N-(pyridin-3-ylmethyl)phenylsulfonamido)methyl)-3-(trifluoromethyl)benzamide]: the results for the IC50 in experiment [1], in experiment [2] and in experiment [3] were 5000 nM, 3400 nM and 1600 nM, respectively.

For `CC(C)N(Cc1ccc(C(=O)NO)cc1F)S(=O)(=O)c1cc(F)c(F)c(F)c1F` [Compound I-50, 3-fluoro-N-hydroxy-4-(((2,3,4,5-tetrafluoro-N-isopropylphenyl)sulfonamido)methyl)benzamide], the IC50 in experiment [4], in experiment [5], in experiment [6], in experiment [7], in [8] and in [9] was more than 1000 nM each time. In addition, the IC50 in experiment [10] was more than 1000 nM; in [11], more than 50000 nM; in experiment [12], 1200 nM; in experiment [2], 1600 nM.

As usually defined, the IC50 is the concentration that inhibits the measured activity by half.

The record behind these values is patent US20220169598A1, “HALOGENATED PHENYLSULFONAMIDE HYDROXAMIC ACID COMPOUNDS, COMPOSITIONS AND USES THEREOF AS SELECTIVE HDAC6 INHIBITORS” (2681603 ONTARIO INC., priority 2019, published 2022).
